Where two headings read alike, the source gives them in different places.

These results are taken from patent US20180292390A1 (priority 2015, published 2018).

Assay [1] has as its system BRB in retinal slice cultures. Nature of the assay: IgG immunostaining of retinal slice cultures: BRB breach. The assay is classed as cell-based. The note with it: for IgG in neurons (indicator of BRB breach): retinal slices treated with histamine with or without lipoxin A4, FIG. 10. The source says: Untreated samples served as control. The slices were then processed to generate cryosections for immunostaining. The location of IgG (an indicator of BRB breach) was monitored by immunostaining.

The test system of assay [2] is Muller cell processes. Nature of the assay: GFAP immunostaining of ex vivo retinal culture: Muller cell processes. It counts as cell-based. Particulars: retina untreated, histamine only, LXA4 only, or both, FIG. 15. The procedure: This experiment followed the protocol of Example 1. This example illustrates a new analysis added for drug evaluation in ex vivo retinal culture. […] Statistical significance is determined by two-tailed Student's t test. *, P<0.05; **, P<0.01; ***, P<0.001. Mean±SEM is plotted in the graph.

Assay [3] deals with BBB (blood vessels) in mouse brain organotypic cultures. Particulars: 450 μM histamine; for blood vessel leakage: 1 hour; for percentage of leaky vessels (IgG extravasated out of blood vessels): 2 mm MBO. The protocol:
(§1) Primary mouse brain organotypic cultures were prepared as described previously ((Levin et al., Brain Res. 1298, 194-207, 2009). Briefly, the brains were removed from C57BL/6 mice (n=8) and cut to either 1 mm or 2 mm thickness using a tissue chopper. The brain slices were then placed in medium containing 25% inactivated horse serum, 25% Hanks' BSS, 50% DMEM, and 25 mg/l penicillin-streptomycin (Invitrogen, Carlsbad, Calif.) in 6-well culture dishes and maintained for 30 min at room temperature. The brain slices were then moved to either fresh media (control) or fresh media containing 450 μM histamine (Sigma, Saint Louis, Mo., Cat. No. H7125-1G) in 6-well culture dishes for 1 hr at 37° C. in a 5% CO2-enriched atmosphere. The brain slices were fixed with 4% paraformaldehyde (PFA) in PBS at room temperature and processed for immunohistochemistry as described below.
(§2) The mouse brain organotypic brain slices were stored in 4% PFA overnight at 4° C. The brain slices were then infiltrated with 10% sucrose in PBS for 2 hours, followed by 30% sucrose in PBS overnight at 4° C. under constant, gentle agitation. Using a Leica cryostat, 12 μm thick frozen sections were cut, mounted onto Fisher Super Frost Plus slides, and air dried. Immunohistochemistry for the paraffin-embedded tissues was carried out using procedure well known in the art. Briefly, tissues were deparaffinized using xylene and then rehydrated through a graded series of decreasing concentrations of ethanol. Next, protein antigenicity was enhanced by microwaving sections in citrate buffer. The paraffin-embedded tissues were then processed in the same way as the frozen sections described below.
(§3) Immunohistochemistry for the frozen sections was carried out as previously described ((Levin et al., Brain Res. 1298, 194-207, 2009). Briefly, tissues were rehydrated with PBS for 2 min. The endogenous peroxidase was quenched by treating sections with 0.3% H202 for 30 min. First, sections were incubated in blocking serum for 30 min. at room temperature, and then treated with primary antibodies at appropriate dilutions for 1 hr at room temperature. Next, sections were thoroughly rinsed with PBS, and sections were incubated with biotin-labeled secondary antibody for 30 min. at room temperature. Sections were then treated with the avidin-peroxidase-labeled biotin complex (ABC, Vector Labs, Foster City, Calif.) and visualized by treating with either 3-3-diaminobenzidine-4-HCL (DAB)/H2O2 (Biomeda, Foster City, Calif.) or NovaRed (Vector Labs, Foster City, Calif., Cat. No. SK-4800). Sections were then lightly counterstained with hematoxylin, dehydrated through increasing concentrations of ethanol, cleared in xylene and mounted in Permount. Specimens were examined and photographed with a Nikon FXA microscope, and digital images were recorded using a Nikon DXM1200F digital camera and processed using Image Pro Plus (Phase 3 Imaging, Glen Mills, Pa.) image software.
(§4) Leaky and non-leaky vessels, GFAP-positive and -negative astrocytes, and vimentin-positive and -negative neurons were counted in sections of primary mouse brain organotypic culture slices. Images were optimized and counting was performed using the counting feature of Adobe Photoshop CS3. Three sections were examined per treatment group, with at least ten viewing fields counted from each section, for a total of 30 viewing fields per treatment group. Only blood vessels with endothelial cell nuclei, astrocytes with their nuclei, and neurons with their nuclei within the plane of section were included in the count. […] The percentage of total leaky vessels, GFAP-positive astrocytes, and vimentin-positive neurons for histamine treated and control slices were determined.
(§5) Immunohistochemistry (IHC) was used to evaluate the effects of histamine on BBB permeability and the response of cells within the surrounding brain parenchyma.

The test system of assay [4] is neurons in mouse brain organotypic cultures. Particulars: 450 μM histamine; for vimentin-positive neurons: 2 mm MBO. The protocol: as §1, §2, §3, §4, §5
Assay [5] relates to astrocytes in mouse brain organotypic cultures. The note with it: 450 μM histamine; for GFAP-positive astrocytes (GFAP expression): 1 hr, 2 mm MBO. The procedure: as §1, §2, §3, §4, §5
For assay [6], the system named is GFAP expression in retinal slices. Particulars: retinal slices treated with histamine 0, 30, 60 or 90 min, FIG. 8. From the text:
(§6) The slices were then processed to generate cryosections for immunostaining.

In assay [7] the test system is MAP2 expression in retinal slices. Particulars: retinal slices treated with histamine 0, 30, 60 or 90 min, FIG. 9.
Description: as §6

Assay [8] concerns BBB, mouse brain. As to the kind of experiment: IgG immunostaining of brain cortex of PT-treated mice: BBB compromise. The assay is classed as in vivo. The source says: This experiment followed the protocol of Example 1. This experiment involved S100B knockout (KO) mice, focusing on age-dependent increase of blood-brain barrier permeability and neuron-binding autoantibodies in SB100KO mice. […] Overlay of IgG immunostaining (red) with DAPI (blue) is presented from cortical region of the brain. (FIG. 18A) In untreated wild type (WT) brains, IgG-positive staining was confined to the microvasculature, indicating intact blood vessels (arrows). […] (FIG. 18C). In the S100BKO mouse brain (KO), even without PT treatment, IgG-positive leaks (marked by white dotted circle) were observed. (FIG. 18D).

For assay [9], the system named is retinal neurons. Nature of the assay: SV2 and MAP2 immunostaining of retina of pertussis toxin treated mice. It counts as in vivo. Particulars: pertussis toxin treated wild type mice.

Regarding `CCCCC[C@H](O)/C=C/C=C\C=C\C=C\[C@@H](O)[C@@H](O)CCCC(=O)O` [LXA4, lipoxin A4], in assay [1], the “IgG in neurons (indicator of BRB breach)” value is listed as “conferred protection from these effects”. Further, in assay [2], the “Muller cell processes (GFAP staining, width)” value is reported as “Rescued”.

As to `NCCc1c[nH]cn1` [histamine], the “BRB integrity, location of IgG” value in [1] (retinal slices after histamine treatment, FIG. 7) is “BRB breakdown and extravasated IgG surrounding blood vessels”. In addition, the “IgG in neurons (indicator of BRB breach)” value in assay [1] was “neurons were loaded with IgG”. Moreover, the figures for the blood vessel leakage in assay [3] (1 mm MBOs) and in assay [3] (2 mm MBOs) were 30.9% and 24.4%, respectively. Moreover, the “percentage of leaky vessels (IgG extravasated out of blood vessels)” value is 32.4% in [3] (1 hr, distal portion (700-1050 μm)); 24.7% in assay [3] (1 hr, middle portion (350-700 μm)); 19.9% in [3] (1 hr, proximal portion (0-350 μm)). Besides, the “perivascular leakage, histamine treated compared to controls, overall” value in [3] (1 hr, MBO, FIG. 5A) is listed as “more than two-fold”. Moreover, the neuronal damage-responses in assay [4] (1 hour, 1 mm MBOs) was determined as 51.8%. In assay [4] (1 hour, 2 mm MBOs), the “vimentin expression by neurons” value was 46.5%. For the same molecule, the vimentin-positive neurons in [4] (1 hr, distal portion) came to 47.5%; in assay [4] (1 hr, middle portion) it was 45.1%; in [4] (1 hr, proximal portion) it was 47%. In [4] (1 hr, MBO, FIG. 5C), the “increase in neurons expressing vimentin compared to control sections” value is recorded as “greater than four-fold”. The molecule further showed an astrocyte activation in assay [5] (1 hour, 1 mm MBOs) of 47.7%. For the same molecule, the “GFAP expression by astrocytes” value in assay [5] (1 hour, 2 mm MBOs) turned out to be 45.7%. In addition, the “GFAP-positive astrocytes (GFAP expression)” value in assay [5] (distal portion) amounted to 48.4%; in [5] (middle portion), 45.1%; in assay [5] (proximal portion), 43.6%. The GFAP expression entry in [6] is “elevation in GFAP expression”. The MAP2 expression result in assay [7] is listed as “decrease in MAP2 expression”. Moreover, in [2], the “Muller cell processes (GFAP staining, width)” value is “Compromised”.

Consider Pertussis toxin [PT], for which the “IgG binding to neurons in brain cortex” value in assay [8] (S100BKO mice treated with PT, FIG. 18D) is recorded as “intensely bound by IgG”. For the same molecule, the “IgG-positive staining in brain cortex” value in [8] (wild type (WT) mice with PT treatment, FIG. 18B) is “IgG-positive microvascular leaks”. Moreover, in [9], the “retinal neuronal damage by SV2 and MAP2 immunostaining” value is recorded as “displays retinal neuronal damages”.
